Legend:
[1] = biological target: T1, human GSTP1 (hGSTP1) (Homo sapiens, UniProt P09211); assay: Gel-based competitive chemical proteomic screen with HHS-482, recombinant hGSTP1-HEK293T soluble proteomes; type: binding; conditions: fragment 50 μM, 30 min, 37° C.
T1 construct: FLAG (C); host or cells: HEK293T, transient transfection; soluble proteome used unpurified
Description: Gel-Based Chemical Proteomic Assay
Cell pellets were lysed in PBS and fractionated (100,000×g, 45 min, 4° C.) to generate soluble and membrane fractions. Protein concentrations were determined using Bio-Rad DC protein assay (Bio-Rad Laboratories, Inc., Hercules, California, United States of America), and adjusted to 1 mgml^−1 in PBS. Proteome samples (49 μl aliquots) were treated with DMSO vehicle or indicated concentration of SuTEx fragment (1 μL, 50× stock in DMSO) for 30 min at 37° C. Samples were then treated with HHS-482 probe (1 μL, 2.5 mM stock in DMSO) for 30 min at 37° C. Probe labeled samples were conjugated to rhodamine-azide (1 μL, 1.25 mM stock; final concentration of 25 μM) by copper-catalyzed azide-alkyne cycloadditions (CuAAC) for 1 h at room temperature followed by SDS-PAGE and in-gel fluorescence scanning as previously described^57.

[2] = biological target: T2, recombinant GSTP1 lysates (Homo sapiens, UniProt P09211); assay: GSTP1 biochemical substrate assay (GSH conjugation to BDNB); conditions: inhibitor 30 min at 37° C.; n=3; read-out: IC50, in vitro potency against GSTP1 by GSH substrate assay
T2 construct: FLAG (C); host or cells: HEK293T, transient transfection; soluble proteome used unpurified
T2 sequence (P09211 whole entry): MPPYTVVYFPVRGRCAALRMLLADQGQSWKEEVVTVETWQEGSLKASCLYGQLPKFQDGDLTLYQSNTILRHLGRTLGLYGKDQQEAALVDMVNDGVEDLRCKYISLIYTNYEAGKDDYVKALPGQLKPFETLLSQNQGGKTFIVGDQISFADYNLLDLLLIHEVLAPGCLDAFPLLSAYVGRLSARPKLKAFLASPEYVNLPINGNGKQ
Description: GSTP1 Biochemical Substrate Assay
Recombinant GSTP1-HEK293T soluble cell proteomes were diluted to 1 mg ml^−1 in assay buffer (100 mM NaH2PO4, pH 7.0). Samples were treated with inhibitor at indicated concentrations for 30 min at 37° C. GSH stock solution (250 mM in water) was diluted to 4 mM in assay buffer and 25 μl of diluted GSH solution was added to each sample. A substrate stock solution of 75 mM 1-bromo-2,4-dinitrobenzene […] in ethanol was diluted to 2 mM in assay buffer. Samples (25 μl) were aliquoted into a 96-well plate and spun briefly via centrifuge. Next, 50 μl of 2 mM BDNB was added to each well and the reaction was monitored in kinetic mode by measuring absorbance at 340 nm for 10 min on a BMG Labtech CLARIOstar plate reader (BMG Labtech, Cary, North Carolina, United States of America).

[3] = biological target: T3, GSTP1 Y8 (Homo sapiens, UniProt P09211); assay: Quantitative chemical proteomics of live SILAC DM93 cells treated with SuTEx fragments; type: cell-based
T3 construct: endogenous in cells; host or cells: DM93 melanoma cells (SILAC)
T3 sequence (P09211 whole entry, the tested form may be a part): as the sequence (P09211 whole entry) above
Description: Live Cell Evaluation of Sulfonyl-Triazole Fragments
Cells grown to ˜90% confluency in 10 cm plates were treated with DMSO vehicle or SuTEx fragment (10 μl of 1,000× stock) in serum-free media for the indicated concentrations and times at 37° C. with 5% CO2. After treatment, cells were washed with cold PBS twice before collection and preparation for gel-based chemical proteomic evaluation as described above. For LC-MS studies, protein concentrations were normalized to 2.3 mg ml^−1 and 432 μl (for 1 mg final protein amount) were used for sample preparation as detailed below.
(§1) Heavy and light proteomes (432 μl of each) were diluted to 2.3 mg ml^−1 in PBS and sample aliquots (432 μl) were treated with SuTEx fragment at the indicated concentrations (5 μl, 100× stock in DMSO), mixed gently and incubated for 30 min at 37° C. Samples were then treated with HHS-482 (5 μL, 5 mM stock in DMSO) for 30 min at 37° C. Probe-modified proteomes were conjugated to desthiobiotin-PEG3-azide followed by enrichment of probe-modified peptides for nano-electrospray ionization-LC-MS/MS analyses as previously described^57.
Next, SILAC DM93 cells were treated with JWB152 or JWB198 to determine whether these SuTEx fragments could ligand Y8 of endogenous GSTP1 in living systems (50 μM compound, 1.5 hr, 37° C.). Cells were pretreated with DMSO vehicle or SuTEx fragments followed by cells lysis, HHS-482 labeling of proteomes, and quantitative chemical proteomics.

[4] = system: DM93 soluble proteomes; assay: Proteome-wide competitive chemical proteomics of SuTEx fragments vs HHS-482; type: binding, human; conditions: fragment 50 μM, 30 min, 37° C.
Description: as §1
The chemical proteomic method for functional tyrosine profiling^72 was tailored to investigate AG/LG effects on SuTEx fragment reactivity in complex proteomes. In brief, isotopically light and heavy soluble proteomes from DM93 melanoma cells cultured by stable isotopic labeling by amino acids in cell culture (SILAC^80) media were used for quantitative liquid chromatography-mass spectrometry (LC-MS) studies. Light and heavy DM93 proteomes were treated with dimethyl sulfoxide (DMSO) vehicle or SuTEx fragment (50 μM, 30 min, 37° C.), respectively, followed by labeling with the tyrosine-reactive probe HHS-482 described hereinabove (50 μM, 30 min, 37° C.) and copper-catalyzed azide-alkyne cycloaddition (CuAAC) conjugation of a desthiobiotin-azide enrichment tag. Proteomes were digested with trypsin protease, HHS-482-modified peptides enriched by avidin chromatography and analyzed by high-resolution LC-MS/MS and bioinformatics as described hereinabove.
To evaluate substituent effects on proteome activity, reactivity profiles of each respective SuTEx fragment were compared across >1500 total distinct HHS-482-modified tyrosine sites from >650 detected proteins. Fragments were screened across independent biological replicates (n=2-3) and high-quality tyrosine site annotations were identified by detection in at least a single biological replicate from each fragment dataset, probe-specific enrichment (HHS-482 probe/DMSO SILAC ratio (SR)>5), and quality control confidence criteria of ≥300 Byonic score^31, […] protein false discovery rate (FDR), and ≤5 ppm mass accuracy in order to minimize the potential for false positives^72. SILAC ratios (SR) from competitive studies (Light-DMSO/Heavy-fragment) were used to identify fragment-competed tyrosine residues as sites showing >75% reduction in enrichment by HHS-482 compared with DMSO vehicle control (i.e. liganded tyrosines, SR>4). In total, 305 liganded tyrosines on 213 distinct proteins were identified, corresponding to ˜30% and ˜44% of total quantified tyrosines and proteins, respectively. […]

[5] = biological target: EDC3 (Homo sapiens, UniProt Q96F86); assay: Chemical proteomics analysis of EDC3 using EKT-231 and HHS-465; type: binding; conditions: FIG. 46B
Chain of EDC3 (Q96F86 whole entry): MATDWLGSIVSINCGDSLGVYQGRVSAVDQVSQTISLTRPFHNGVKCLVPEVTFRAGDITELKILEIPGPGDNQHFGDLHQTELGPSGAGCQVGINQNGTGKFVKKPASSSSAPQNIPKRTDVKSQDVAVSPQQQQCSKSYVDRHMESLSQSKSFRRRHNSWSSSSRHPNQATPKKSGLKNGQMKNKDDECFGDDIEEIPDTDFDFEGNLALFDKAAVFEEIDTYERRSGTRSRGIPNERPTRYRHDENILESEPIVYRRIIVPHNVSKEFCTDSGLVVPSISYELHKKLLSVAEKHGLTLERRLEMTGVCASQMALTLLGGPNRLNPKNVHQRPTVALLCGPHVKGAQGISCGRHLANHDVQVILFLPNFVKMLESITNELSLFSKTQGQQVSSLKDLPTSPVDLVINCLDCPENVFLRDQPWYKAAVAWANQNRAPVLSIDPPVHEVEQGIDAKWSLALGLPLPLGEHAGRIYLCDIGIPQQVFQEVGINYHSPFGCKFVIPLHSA
Text: FIGS. 46A and 46B: Inhibition of mRNA decapping protein 3 (EDC3) Y475 by EKT-231. FIG. 46A is a schematic drawing of the chemical structure of EKT-231. FIG. 46B is a series of graphs showing the chemical proteomics analysis of EDC3 using EKT-231 and HHS-465.
In addition, SuTEx fragment EKT231 (see FIG. 46A) modifies EDC3 at tyrosine 475.

T1 sequence (P09211 whole entry, the tested form may be a part): as the sequence (P09211 whole entry) above

IC50 [2]	blockade of HHS-482 labeling of native GSTP1 Y8 in live cells ([3]; 50 μM compound, 1.5 hr, 37° C.)	SILAC ratio (SR) at other GSTP1 probe-modified sites ([3]; Y50, Y64, Y80, Y119, and Y199, 50 μM)	tyrosine residue of EDC3 modified [5]	SMILES	block of HHS-482 labeling of GSTP1 [1]	liganded tyrosine frequency (SR>4) [4]
16 µM	~70%	~1	–	O=S(=O)(c1ccc2ccccc2c1)n1cnc(-c2ccncc2)n1 [JWB198, 4-(1-(Naphthalen-2-ylsulfonyl)-1H-1,2,4-triazol-3-yl)pyridine]	block HHS-482 labeling to levels comparable with Y8F mutant	1.3%
–	–	–	475	N#Cc1ccc(S(=O)(=O)n2cc(-c3cccc(Cl)c3)nn2)cc1 [EKT231]	–	–
